{
  "source": "ChEMBL document CHEMBL1201862",
  "about": "“PubChem BioAssay data set” (2004)",
  "key": {"[1]": {"assay": "Luminescence Cell-Based Dose Confirmation HTS to Identify Activators of 5'UTR Stem-Loop Driven Alpha-Synuclein mRNA Translation in H4 Neuroglioblastoma Cells. [Related pubchem assays: 1829 (Project Summary), 1814 (Primary HTS)]", "assay_type": "functional"}, "[2]": {"assay": "Luminescence Cell-Based Dose Response HTS to Identify Activators of Luciferase Translation or Activity in H4 […] Cells. [Related pubchem assays: 1829 (Project Summary), 1814 (Primary HTS)]", "assay_type": "functional"}, "H4": {"test_system": "H4", "assay": "Luminescence Cell-Based Dose Response HTS to Identify Activators of 5'UTR Stem-Loop Driven Prion Protein mRNA Translation in H4 Neuroglioblastoma Cells. [Related pubchem assays: 1829 (Project Summary), 1814 (Primary HTS)]", "assay_type": "functional", "details": "Homo sapiens"}, "HEK293": {"test_system": "HEK293", "assay": "cells", "assay_type": "functional, cell-based", "details": "Homo sapiens"}, "[3]": {"biological_target": "Nuclear receptor subfamily 0 group B member 1 (Homo sapiens, UniProt P51843)", "sequence (P51843 whole entry)": "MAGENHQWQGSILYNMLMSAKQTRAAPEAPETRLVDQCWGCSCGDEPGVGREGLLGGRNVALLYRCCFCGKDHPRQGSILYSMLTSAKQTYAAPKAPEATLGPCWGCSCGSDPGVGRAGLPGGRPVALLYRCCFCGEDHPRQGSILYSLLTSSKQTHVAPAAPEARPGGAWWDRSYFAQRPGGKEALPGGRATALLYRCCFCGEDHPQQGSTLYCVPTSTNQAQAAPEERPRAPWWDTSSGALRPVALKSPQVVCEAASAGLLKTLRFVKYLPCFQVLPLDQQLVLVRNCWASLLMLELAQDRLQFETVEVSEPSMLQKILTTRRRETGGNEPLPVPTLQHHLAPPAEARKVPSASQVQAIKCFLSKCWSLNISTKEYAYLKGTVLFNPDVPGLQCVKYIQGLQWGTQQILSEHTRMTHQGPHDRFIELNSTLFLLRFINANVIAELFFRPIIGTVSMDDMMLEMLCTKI", "assay": "Luminescence-based cell-based high throughput dose response assay for inhibitors of the orphan nuclear receptor subfamily 0, group B, member 1 (DAX1; NR0B1). [Related pubchem assays (depositor defined):AID504766, AID504790]", "assay_type": "functional"}, "[4]": {"biological_target": "Beta-2 adrenergic receptor (Homo sapiens, UniProt P07550)", "sequence (P07550 whole entry)": "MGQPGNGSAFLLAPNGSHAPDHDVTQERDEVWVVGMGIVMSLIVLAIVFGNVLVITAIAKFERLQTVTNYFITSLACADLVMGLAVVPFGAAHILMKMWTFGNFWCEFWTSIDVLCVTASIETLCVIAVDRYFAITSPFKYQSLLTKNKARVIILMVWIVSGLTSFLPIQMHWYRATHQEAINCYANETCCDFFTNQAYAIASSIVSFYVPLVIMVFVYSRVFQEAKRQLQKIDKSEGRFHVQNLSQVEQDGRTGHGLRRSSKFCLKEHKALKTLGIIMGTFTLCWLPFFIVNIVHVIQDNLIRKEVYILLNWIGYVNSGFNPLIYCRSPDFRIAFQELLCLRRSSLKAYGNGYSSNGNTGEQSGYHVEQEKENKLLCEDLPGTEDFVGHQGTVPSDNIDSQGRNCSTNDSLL", "assay": "ADRB2 activation measured by internalization – cell-based, FAP fluorogen, flow cytometry, cherry pick 1, dose response (AID 588763)", "assay_type": "functional"}, "[5]": {"assay": "viability of PTEN-deleted HCT116 cells – cell-based, HCT116 PTEN knockout, dose response (AID 1047);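 also: HCT116 colon tumor cells with PTEN knocked out; cells exposed to compound for 60 hours before readout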", "assay_type": "functional"}, "[6]": {"assay": "viability of HCT116 lacking mutant beta-catenin – cell-based, human colon tumor, dose response (AID 1045);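 also: HCT116 colon tumor cells with beta catenin knocked out; cells exposed to compound for 60 hours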", "assay_type": "functional"}, "[7]": {"biological_target": "T1, Microphthalmia-associated transcription factor (Homo sapiens, UniProt O75030)", "T1 sequence (O75030 whole entry)": "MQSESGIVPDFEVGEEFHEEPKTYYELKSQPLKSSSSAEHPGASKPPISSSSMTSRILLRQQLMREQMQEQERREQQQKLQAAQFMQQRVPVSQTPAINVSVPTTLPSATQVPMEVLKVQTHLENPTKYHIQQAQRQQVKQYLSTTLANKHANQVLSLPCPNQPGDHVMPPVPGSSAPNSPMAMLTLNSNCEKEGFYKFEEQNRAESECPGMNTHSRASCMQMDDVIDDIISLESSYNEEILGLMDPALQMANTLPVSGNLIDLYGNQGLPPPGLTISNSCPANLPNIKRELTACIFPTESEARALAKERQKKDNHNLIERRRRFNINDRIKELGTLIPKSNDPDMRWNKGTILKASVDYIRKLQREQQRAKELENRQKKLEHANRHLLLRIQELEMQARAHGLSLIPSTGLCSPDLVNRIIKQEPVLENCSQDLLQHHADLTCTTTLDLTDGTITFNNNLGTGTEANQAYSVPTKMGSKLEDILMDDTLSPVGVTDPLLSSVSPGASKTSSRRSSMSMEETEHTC", "assay": "reducers of TRPM1 reporter luminescence, concentration series – cell-based, SK-MEL-5, cherry-picked, set 3, MITF inhibitor project, dose response (AID 493073)", "assay_type": "functional"}, "Vero [8]": {"test_system": "Vero", "assay": "cells", "assay_type": "functional, cell-based", "details": "Chlorocebus sabaeus"}, "Vero [9]": {"test_system": "Vero", "assay": "cells", "assay_type": "functional", "details": "Chlorocebus sabaeus"}, "[10]": {"biological_target": "T2, Sentrin-specific protease 8 (Homo sapiens, UniProt Q96LD8)", "T2 sequence (Q96LD8 whole entry)": "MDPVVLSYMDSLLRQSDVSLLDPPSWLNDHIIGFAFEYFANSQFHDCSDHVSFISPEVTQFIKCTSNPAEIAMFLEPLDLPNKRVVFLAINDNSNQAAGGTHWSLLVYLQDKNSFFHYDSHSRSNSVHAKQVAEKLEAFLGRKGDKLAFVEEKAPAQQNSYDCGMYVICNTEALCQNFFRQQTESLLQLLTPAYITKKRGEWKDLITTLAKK", "assay": "inhibition of human SENP8 cleavage activity – biochemical, luminescence, SAR follow-up (AID 504501)", "assay_type": "functional"}, "Caspase-3": {"biological_target": "T3, Caspase-3 (Homo sapiens, UniProt P42574)", "T3 sequence (P42574 whole entry)": "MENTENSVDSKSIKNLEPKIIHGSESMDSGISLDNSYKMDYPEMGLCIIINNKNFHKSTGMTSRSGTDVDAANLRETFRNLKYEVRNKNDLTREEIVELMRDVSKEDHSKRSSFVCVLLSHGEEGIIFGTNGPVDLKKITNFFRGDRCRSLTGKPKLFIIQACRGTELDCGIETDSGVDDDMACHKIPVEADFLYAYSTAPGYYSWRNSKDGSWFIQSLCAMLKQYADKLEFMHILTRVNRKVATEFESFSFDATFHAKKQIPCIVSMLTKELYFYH", "assay": "SAR Analysis of small molecule inhibitors of Sentrin-specific proteases (SENPs) using a Caspase-3 Selectivity assay. [Related pubchem assays (depositor defined):AID2540, AID2599, AID434973, AID489001]", "assay_type": "functional"}, "[11]": {"biological_target": "T4, Sentrin-specific protease 6 (Homo sapiens, UniProt Q9GZR1)", "T4 sequence (Q9GZR1 whole entry)": "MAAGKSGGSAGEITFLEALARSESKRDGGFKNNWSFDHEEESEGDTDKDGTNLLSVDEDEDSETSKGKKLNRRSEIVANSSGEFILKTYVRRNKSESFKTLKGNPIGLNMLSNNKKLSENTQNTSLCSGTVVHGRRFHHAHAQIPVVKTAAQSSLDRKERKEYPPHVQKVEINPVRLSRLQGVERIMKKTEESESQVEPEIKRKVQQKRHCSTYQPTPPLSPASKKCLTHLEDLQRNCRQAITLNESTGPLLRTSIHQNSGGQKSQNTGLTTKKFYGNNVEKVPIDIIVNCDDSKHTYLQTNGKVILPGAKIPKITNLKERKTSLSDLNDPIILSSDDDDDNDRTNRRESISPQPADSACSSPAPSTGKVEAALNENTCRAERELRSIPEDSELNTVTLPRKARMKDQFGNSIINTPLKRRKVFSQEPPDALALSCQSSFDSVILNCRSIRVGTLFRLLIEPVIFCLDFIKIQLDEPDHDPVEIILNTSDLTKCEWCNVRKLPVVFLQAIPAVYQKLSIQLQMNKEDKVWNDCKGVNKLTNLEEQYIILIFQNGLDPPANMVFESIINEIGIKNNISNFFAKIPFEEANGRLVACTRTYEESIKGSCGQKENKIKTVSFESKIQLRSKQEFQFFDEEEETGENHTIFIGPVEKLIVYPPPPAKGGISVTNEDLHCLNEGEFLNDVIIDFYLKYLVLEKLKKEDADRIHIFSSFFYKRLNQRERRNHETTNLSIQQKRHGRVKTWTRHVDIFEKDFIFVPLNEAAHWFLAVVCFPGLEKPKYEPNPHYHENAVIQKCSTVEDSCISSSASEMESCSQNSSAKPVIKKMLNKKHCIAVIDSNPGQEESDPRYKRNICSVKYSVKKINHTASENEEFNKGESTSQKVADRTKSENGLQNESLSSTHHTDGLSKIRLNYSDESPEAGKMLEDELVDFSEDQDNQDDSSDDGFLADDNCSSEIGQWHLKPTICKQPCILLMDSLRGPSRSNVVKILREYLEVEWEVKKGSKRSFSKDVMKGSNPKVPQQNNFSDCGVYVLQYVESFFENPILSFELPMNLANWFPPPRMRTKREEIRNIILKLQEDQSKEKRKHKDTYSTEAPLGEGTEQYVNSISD", "assay": "SAR Analysis of small molecule inhibitors of Sentrin-specific protease 6 (SENP6) using a Luminescent assay. [Related pubchem assays (depositor defined):AID2582, AID2599]", "assay_type": "functional"}, "[12]": {"biological_target": "T5, Sentrin-specific protease 7 (Homo sapiens, UniProt Q9BQF6)", "T5 sequence (Q9BQF6 whole entry)": "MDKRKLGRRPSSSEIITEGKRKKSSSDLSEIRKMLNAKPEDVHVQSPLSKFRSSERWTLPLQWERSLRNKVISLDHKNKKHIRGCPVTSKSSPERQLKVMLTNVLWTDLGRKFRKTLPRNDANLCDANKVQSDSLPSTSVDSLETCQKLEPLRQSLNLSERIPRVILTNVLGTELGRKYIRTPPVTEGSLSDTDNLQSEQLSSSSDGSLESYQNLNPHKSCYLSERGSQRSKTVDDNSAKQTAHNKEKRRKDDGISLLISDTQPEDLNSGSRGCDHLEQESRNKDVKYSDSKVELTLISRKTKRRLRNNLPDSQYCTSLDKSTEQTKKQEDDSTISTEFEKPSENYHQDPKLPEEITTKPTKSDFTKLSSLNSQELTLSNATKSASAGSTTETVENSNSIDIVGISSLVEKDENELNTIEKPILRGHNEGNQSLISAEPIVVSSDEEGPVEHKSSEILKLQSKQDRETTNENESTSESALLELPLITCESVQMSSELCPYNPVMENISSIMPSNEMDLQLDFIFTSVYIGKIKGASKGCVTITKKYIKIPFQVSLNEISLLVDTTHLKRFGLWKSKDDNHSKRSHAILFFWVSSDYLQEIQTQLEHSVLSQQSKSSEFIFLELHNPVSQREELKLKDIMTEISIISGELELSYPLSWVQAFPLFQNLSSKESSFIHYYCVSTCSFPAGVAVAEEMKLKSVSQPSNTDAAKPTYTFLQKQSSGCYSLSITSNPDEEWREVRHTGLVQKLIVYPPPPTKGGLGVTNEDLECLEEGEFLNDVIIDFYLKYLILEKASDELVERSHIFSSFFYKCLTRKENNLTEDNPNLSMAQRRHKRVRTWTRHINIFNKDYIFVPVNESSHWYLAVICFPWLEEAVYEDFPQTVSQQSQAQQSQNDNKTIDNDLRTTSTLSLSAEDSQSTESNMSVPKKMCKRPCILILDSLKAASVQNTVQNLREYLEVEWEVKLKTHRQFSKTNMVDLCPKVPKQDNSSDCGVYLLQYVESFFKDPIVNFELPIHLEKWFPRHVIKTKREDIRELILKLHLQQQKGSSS", "assay": "inhibition of human SENP7 cleavage activity – biochemical, luminescence, SAR follow-up (AID 504497)", "assay_type": "functional"}, "[13]": {"assay": "Luminescence Cell-Based Dose Retest to Confirm Inhibitors of Cancer Stem Cells. [Related pubchem assays (depositor defined):AID2717, AID2721]", "assay_type": "functional", "details": "Homo sapiens"}, "[14]": {"assay": "Counterscreen for AddAB inhibitors: absorbance-based bacterial cell-based high throughput dose response assay for inhibitors of bacterial viability. [Related pubchem assays (depositor defined):AID435030, AID449728, AID449731, AID488942, AID488955, AID488956]", "assay_type": "functional"}, "CHO": {"test_system": "CHO", "assay": "CHO cell viability loss, potency – luminescence, cytotoxicity control for TLR9-MyD88 binding inhibitor project, dose response (AID 588339);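 also: CHO cells stably coexpressing TLR9 and MyD88 fusions from primary screen; compound exposure lasted 48 hours before viability readout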", "assay_type": "functional, cell-based, hamster", "details": "Cricetulus griseus"}, "[15]": {"assay": "Fluorescence-based cell-based high throughput dose response assay for inhibitors of the interaction of nucleotide-binding oligomerization domain containing 2 (NOD2) and the receptor-interacting serine-threonine kinase 2 (RIPK2).", "assay_type": "functional", "details": "Homo sapiens"}},
  "note": "Activity calls are given as the source filed them.",
  "data": [
    {"smiles": "Cc1ccccc1OCC(=O)Nc1ccc2c(c1)OCCO2", "values": [
      {"measurement": "EC50", "setting": "[1]", "result": "51.8 µM (active)"},
      {"measurement": "EC50", "setting": "[2]", "result": "4.75 µM (active)"},
      {"measurement": "EC50", "setting": "H4", "result": "75.2 µM (active)"},
      {"measurement": "IC50", "setting": "HEK293", "result": "> 67.5 µM (inactive)"},
      {"measurement": "IC50", "setting": "[3]", "result": "> 67.5 µM (inactive)"}
    ]},
    {"smiles": "CC(=O)Nc1ccc(S(=O)(=O)NCCc2csc(-c3cccnc3)n2)cc1", "values": [
      {"measurement": "EC50", "setting": "[4]", "result": "0.162 µM (active)"}
    ]},
    {"smiles": "Cc1ccccc1Cn1c(=N)n(CC(=O)c2ccc([N+](=O)[O-])cc2)c2ccccc21", "values": [
      {"measurement": "EC50", "setting": "[5]", "result": "9.32 µM (active)"},
      {"measurement": "EC50", "setting": "[6]", "result": "8.1 µM (active)"},
      {"measurement": "AC50", "setting": "[7]", "result": "5.63 µM (active)"},
      {"measurement": "IC50", "setting": "Vero [8]", "result": "> 25 µM (active)"},
      {"measurement": "CC50", "setting": "Vero [9]", "result": "14 µM (active)"},
      {"measurement": "EC50", "setting": "[4]", "result": "15.2 µM (inactive)"}
    ]},
    {"smiles": "Cc1nn(-c2ccccc2)c2c1C(c1ccc(OC(F)F)cc1)C(C#N)=C(N)O2", "note": "(stereo not given)", "values": [
      {"measurement": "IC50", "setting": "[10]", "result": "> 99 µM (inactive)"},
      {"measurement": "IC50", "setting": "Caspase-3", "result": "> 99 µM (inactive)"},
      {"measurement": "IC50", "setting": "[11]", "result": "> 99 µM (inactive)"},
      {"measurement": "IC50", "setting": "[12]", "result": "> 99 µM (inactive)"}
    ]},
    {"smiles": "C=CCn1c(O)nnc1Sc1ncc([N+](=O)[O-])s1", "values": [
      {"measurement": "AC50", "setting": "[13]", "result": "1.85 µM (active)"},
      {"measurement": "IC50", "setting": "[14]", "result": "21.7 µM (inactive)"},
      {"measurement": "IC50", "setting": "CHO", "result": "1.99 µM (active)"},
      {"measurement": "IC50", "setting": "[15]", "result": "1.32 µM (active)"}
    ]}
  ]
}
